Source: patent publication US20250051319A1 (AUGUSTINE THERAPEUTICS, priority 2021, published 2025)

Assays:
[1] = target: human full-length recombinant HDAC1 (Homo sapiens (Human), UniProt Q13547); experiment: HDAC1 enzymatic activity assay (alternative protocol, Ac-Gly-Ala-Lys(Ac)-AMC); format: biochemical; conditions: 4 nM enzyme, read-out: HDAC1 biochem
Procedure: (§1) Inhibition of HDAC enzymes was performed in 384-well plate format using human full-length recombinant HDAC1 and HDAC6, isolated from a baculovirus expression system in Sf9 cells (BPS Bioscience). Reaction buffer for HDAC1 contained 50 mM Tris HCl pH 8.0, 137 mM NaCl, 2.7 mM KCl, 1 mM MgCl2, 0.1 mg/mL BSA, and reaction buffer for HDAC6 contained 50 mM Tris/HCl, pH 8.0, 137 mM NaCl, 2.7 mM KCl, 250 μM EDTA, 1 mM DTT, 0.1 mg/mL BSA. Compounds (dissolved in 100% DMSO) or DMSO (vehicle) were diluted in assay buffer at 3× final assay concentration and then added to assay plates. SAHA ([…]) was used as a positive control. 3× final assay concentration of recombinant enzymes (final assay concentration is 4 nM and 5 nM for HDAC1 and HDAC6, respectively) were preincubated for 10 minutes with test compounds at room temperature. Afterwards, 3× final assay concentration of an acetylated fluorogenic peptide (Ac-Gly-Ala-Lys(Ac))-AMC, Bachem; final assay concentration is 12 µM and 40 µM for HDAC1 and HDAC6, respectively) was added to assay plate, allowing deacetylase reactions to incubate for 60 minutes at room temperature. The developer reagent containing 5 μM SAHA and 50 μM trypsin was added to stop the deacetylase reaction and generate AMNC-fluorescence. 15 minutes after addition of developer reagent, endpoint measurements were taken using CLARIOstar (BMG Labtech) plate reader (excitation/emission: 360/450). Fluorescence signals were normalized for each plate using GraphPad Prism software: reaction HDAC-substrate in presence of DMSO was set to 100% while reaction HDAC-substrate in presence of 10 μM SAHA was set to 0%.

[2] = target: human full-length recombinant HDAC6 (Homo sapiens (Human), UniProt Q9UBN7); experiment: HDAC6 enzymatic activity assay (alternative protocol, Ac-Gly-Ala-Lys(Ac)-AMC); format: biochemical; conditions: 5 nM enzyme, read-out: HDAC6 biochem
Procedure: as §1

[3] = target: catalytic domain 2 (CD2) of HDAC6 (Homo sapiens (Human), UniProt Q9UBN7); experiment: Cellular target engagement assay - NanoBRET; format: cell-based; conditions: NanoLuc-HDAC6(CD2) in HEK293T cells, 2 hours, read-out: IC50 (HDAC6(CD2) interaction)
Sequence of catalytic domain 2 (CD2) of HDAC6 (Q9UBN7 482-800): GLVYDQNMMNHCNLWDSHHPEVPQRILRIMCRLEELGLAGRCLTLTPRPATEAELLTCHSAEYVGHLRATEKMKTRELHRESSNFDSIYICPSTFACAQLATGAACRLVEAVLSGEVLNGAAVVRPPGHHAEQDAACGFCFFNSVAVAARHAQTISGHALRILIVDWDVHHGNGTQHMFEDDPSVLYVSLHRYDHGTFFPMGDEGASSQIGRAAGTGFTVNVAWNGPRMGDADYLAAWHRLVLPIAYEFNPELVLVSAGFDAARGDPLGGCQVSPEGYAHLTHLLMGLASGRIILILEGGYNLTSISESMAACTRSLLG

Sequence of human full-length recombinant HDAC1 (Q13547 whole entry): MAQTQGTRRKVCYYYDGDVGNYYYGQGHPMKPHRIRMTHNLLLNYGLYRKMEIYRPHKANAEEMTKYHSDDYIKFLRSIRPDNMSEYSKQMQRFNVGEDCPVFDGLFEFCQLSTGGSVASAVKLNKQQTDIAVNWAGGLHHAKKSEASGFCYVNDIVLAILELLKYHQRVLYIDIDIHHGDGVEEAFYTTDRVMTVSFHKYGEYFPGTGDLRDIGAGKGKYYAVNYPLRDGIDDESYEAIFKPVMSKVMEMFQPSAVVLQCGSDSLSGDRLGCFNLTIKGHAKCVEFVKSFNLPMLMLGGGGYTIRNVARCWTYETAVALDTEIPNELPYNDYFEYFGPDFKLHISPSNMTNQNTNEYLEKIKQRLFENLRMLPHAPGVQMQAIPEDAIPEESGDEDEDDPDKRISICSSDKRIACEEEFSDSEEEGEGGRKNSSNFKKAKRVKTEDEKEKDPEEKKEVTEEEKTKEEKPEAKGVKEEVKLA
Sequence of human full-length recombinant HDAC6 (Q9UBN7 whole entry): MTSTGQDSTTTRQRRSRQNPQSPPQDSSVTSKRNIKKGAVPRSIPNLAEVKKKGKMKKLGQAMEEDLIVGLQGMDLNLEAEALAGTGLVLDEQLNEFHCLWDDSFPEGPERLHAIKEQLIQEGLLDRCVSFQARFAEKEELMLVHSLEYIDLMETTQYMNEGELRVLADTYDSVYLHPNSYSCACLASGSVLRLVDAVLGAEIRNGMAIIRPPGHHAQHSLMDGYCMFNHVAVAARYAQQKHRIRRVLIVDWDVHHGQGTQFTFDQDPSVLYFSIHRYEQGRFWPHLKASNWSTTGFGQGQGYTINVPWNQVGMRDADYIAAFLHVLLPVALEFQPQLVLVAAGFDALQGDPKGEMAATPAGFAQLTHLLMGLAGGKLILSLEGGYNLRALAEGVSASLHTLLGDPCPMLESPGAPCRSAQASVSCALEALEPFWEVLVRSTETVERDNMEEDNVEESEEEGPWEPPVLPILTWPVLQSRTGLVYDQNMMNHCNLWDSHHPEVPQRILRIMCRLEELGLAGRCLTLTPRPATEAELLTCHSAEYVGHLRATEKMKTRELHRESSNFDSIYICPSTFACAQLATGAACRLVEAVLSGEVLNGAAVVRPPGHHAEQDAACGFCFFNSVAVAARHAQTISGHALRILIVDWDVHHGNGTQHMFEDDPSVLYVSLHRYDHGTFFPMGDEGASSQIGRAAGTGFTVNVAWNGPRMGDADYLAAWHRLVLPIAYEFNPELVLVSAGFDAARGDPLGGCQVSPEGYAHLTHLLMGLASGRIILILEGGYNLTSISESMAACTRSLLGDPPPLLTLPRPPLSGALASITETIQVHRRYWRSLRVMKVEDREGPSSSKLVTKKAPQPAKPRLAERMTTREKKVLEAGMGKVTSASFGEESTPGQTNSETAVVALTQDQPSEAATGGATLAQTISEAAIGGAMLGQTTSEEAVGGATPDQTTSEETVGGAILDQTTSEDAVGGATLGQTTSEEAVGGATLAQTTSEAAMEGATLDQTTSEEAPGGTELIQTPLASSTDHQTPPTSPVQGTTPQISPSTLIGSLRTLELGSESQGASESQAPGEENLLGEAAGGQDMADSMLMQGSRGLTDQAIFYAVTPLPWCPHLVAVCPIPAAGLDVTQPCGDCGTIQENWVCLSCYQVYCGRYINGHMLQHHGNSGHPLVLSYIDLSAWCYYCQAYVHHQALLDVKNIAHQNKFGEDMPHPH

IC50 [1] [nM]	IC50 [2] [nM]	IC50 [3] [nM]	Compound
> 10000	≤ 100	–	Cn1ncc2c(SCC(=O)c3ccc(CNC(=O)Cc4ccccc4)s3)ncnc21 [Example 32, N-((5-(2-((1-methyl-1H-pyrazolo[3,4-d]pyrimidin-4-yl)thio)acetyl)thiophen-2-yl)methyl)-2-phenylacetamide]
500 to 1000	100 to 500	–	Cn1ncc2c(SCC(=O)c3nnc(CNC(=O)C(C)(C)C)s3)ncnc21 [Example 192, N-((5-(2-(1-methyl-1H-pyrazolo[3,4-d]pyrimidin-4-ylthio)acetyl)-1,3,4-thiadiazol-2-yl)methyl)pivalamide]
–	–	500 to 1000	COc1ccc2nc(C)nc(SCC(=O)c3ccc(CCN4CCC(O)C4=O)s3)c2c1 (stereo not shown) [Example 115, 3-hydroxy-1-(2-(5-(2-((6-methoxy-2-methylquinazolin-4-yl)thio)acetyl)thiophen-2-yl)ethyl)pyrrolidin-2-one]
–	–	100 to 500	CC(=O)NCCc1ccc(C(=O)CSc2nc(C(F)(F)F)nc3ccccc23)s1 [Compound 100, N-(2-(5-(2-((2-(trifluoromethyl)quinazolin-4-yl)thio)acetyl)thiophen-2-yl)ethyl)acetamide]
–	–	100 to 500	CNc1cc(C(F)(F)F)cc2c(SCC(=O)c3ccc(CNC(=O)CO)s3)nc(C)nc12 [Compound 151, 2-hydroxy-N-((5-(2-((2-methyl-8-(methylamino)-6-(trifluoromethyl)quinazolin-4-yl)thio)acetyl)thiophen-2-yl)methyl)acetamide]
–	–	100 to 500	COc1ccc2nc(C(F)F)nc(SCC(=O)c3ccc(CNC(=O)CO)s3)c2c1 [Compound 139, N-((5-(2-((2-(difluoromethyl)-6-methoxyquinazolin-4-yl)thio)acetyl)thiophen-2-yl)methyl)-2-hydroxyacetamide]
–	–	1000 to 10000	COc1ccc2nc(C)nc(SCC(=O)c3ccc(CNC(=O)C(F)(F)C(F)(F)F)s3)c2c1 [Example 40, 2,2,3,3,3-pentafluoro-N-((5-(2-((6-methoxy-2-methylquinazolin-4-yl)thio)acetyl)thiophen-2-yl)methyl)propanamide]
–	–	100 to 500	COc1ccc2nc(C)nc(SCC(=O)c3ccc(CNC(=O)[C@@H](C)O)s3)c2c1 [Compound 186, (R)-2-hydroxy-N-((5-(2-((6-methoxy-2-methylquinazolin-4-yl)thio)acetyl)thiophen-2-yl)methyl)propanamide]
> 10000	1000 to 10000	–	CC(C)(C)C(=O)NCc1ccc(C(=O)CSc2nc(C(F)(F)F)cc3ccccc23)s1 [Example 191, N-((5-(2-((3-(trifluoromethyl)isoquinolin-1-yl)thio)acetyl)thiophen-2-yl)methyl)pivalamide]
–	–	100 to 500	COc1ccc2nc(C)nc(SCC(=O)c3ccc(CN4CCC(O)C4=O)s3)c2c1 (stereo not shown) [Example 141, 3-hydroxy-1-((5-(2-((6-methoxy-2-methylquinazolin-4-yl)thio)acetyl)thiophen-2-yl)methyl)pyrrolidin-2-one]
–	–	100 to 500	COc1ccc2c(SCC(=O)c3ccc(CNC(=O)CO)s3)nc(C)nc2c1 [Compound 70, 2-hydroxy-N-((5-(2-((7-methoxy-2-methylquinazolin-4-yl)thio)acetyl)thiophen-2-yl)methyl)acetamide]
–	–	≤ 100	Cc1nc(SCC(=O)c2ccc(CNC(=O)CO)s2)c2cc(N(C)C)ncc2n1 [Compound 149, N-((5-(2-((6-(dimethylamino)-2-methylpyrido[3,4-d]pyrimidin-4-yl)thio)acetyl)thiophen-2-yl)methyl)-2-hydroxyacetamide]
–	–	1000 to 10000	COc1ccc2nc(SCC(=O)c3ccc(CNC(=O)CO)s3)[nH]c2n1 [Example 173, 2-hydroxy-N-((5-(2-((5-methoxy-3H-imidazo[4,5-b]pyridin-2-yl)thio)acetyl)thiophen-2-yl)methyl)acetamide]
–	–	≤ 100	CN(Cc1ccc(C(=O)CSc2nc(C(F)(F)F)nc3ncccc23)s1)C(=O)CO [Compound 131, 2-hydroxy-N-methyl-N-((5-(2-((2-(trifluoromethyl)pyrido[2,3-d]pyrimidin-4-yl)thio)acetyl)thiophen-2-yl)methyl)acetamide]
–	–	100 to 500	COc1ccc2nc(C)nc(SCC(=O)c3ccc([C@H](C)NC(=O)CO)s3)c2c1 [Example 128, (S)-2-hydroxy-N-(1-(5-(2-((6-methoxy-2-methylquinazolin-4-yl)thio)acetyl)thiophen-2-yl)ethyl)acetamide]
–	–	≤ 100	COc1cc2c(SCC(=O)c3ccc(CNC(=O)CO)s3)nc(C)nc2cn1 [Compound 121, 2-hydroxy-N-((5-(2-((6-methoxy-2-methylpyrido[3,4-d]pyrimidin-4-yl)thio)acetyl)thiophen-2-yl)methyl)acetamide]

IC50 [1] [nM]	IC50 [2] [nM]	IC50 [3] [nM]	Compound
–	–	≤ 100	CCOc1cc2c(SCC(=O)c3ccc(CNC(=O)CO)s3)nc(C)nc2cn1 [Compound 145, N-((5-(2-((6-ethoxy-2-methylpyrido[3,4-d]pyrimidin-4-yl)thio)acetyl)thiophen-2-yl)methyl)-2-hydroxyacetamide]
–	–	≤ 100	Cc1nc(SCC(=O)c2ccc(CNC(=O)CO)s2)c2cc(N3CCOCC3)ccc2n1 [Compound 81, 2-hydroxy-N-((5-(2-((2-methyl-6-morpholinoquinazolin-4-yl)thio)acetyl)thiophen-2-yl)methyl)acetamide]
–	–	100 to 500	O=C(CO)NCc1ccc(C(=O)CSc2nc(C(F)(F)F)nc3ccc(N4CCOCC4)cc23)s1 [Example 63]
–	–	100 to 500	COc1ccc2nc(C)nc(SCC(=O)c3ccc(CNC(=O)C(F)F)s3)c2c1 [Compound 172, 2,2-difluoro-N-((5-(2-((6-methoxy-2-methylquinazolin-4-yl)thio)acetyl)thiophen-2-yl)methyl)acetamide]
–	–	100 to 500	CCc1nc(SCC(=O)c2ccc(CNC(=O)C(C)(C)C)s2)c2ccccc2n1 [Example 13, N-((5-(2-((2-ethylquinazolin-4-yl)thio)acetyl)thiophen-2-yl)methyl)pivalamide]
–	–	≤ 100	Cc1nc(SCC(=O)c2ccc(CNC(=O)CO)s2)c2cc(N3CCCCC3)ccc2n1 [Compound 82, 2-hydroxy-N-((5-(2-((2-methyl-6-(piperidin-1-yl)quinazolin-4-yl)thio)acetyl)thiophen-2-yl)methyl)acetamide]
–	–	1000 to 10000	O=C(CO)NCc1ccc(C(=O)CSc2nccn3nccc23)s1 [Example 182, 2-hydroxy-N-((5-(2-(pyrazolo[1,5-a]pyrazin-4-ylthio)acetyl)thiophen-2-yl)methyl)acetamide]
–	–	≤ 100	Cn1cc2c(SCC(=O)c3ccc(CNC(=O)C(C)(C)O)s3)nc(C(F)(F)F)nc2n1 [Compound 48, 2-hydroxy-2-methyl-N-((5-(2-((2-methyl-6-(trifluoromethyl)-2H-pyrazolo[3,4-d]pyrimidin-4-yl)thio)acetyl)thiophen-2-yl)methyl)propanamide]
–	–	100 to 500	C[C@H](NC(=O)CO)c1ccc(C(=O)CSc2nc(C(F)(F)F)nc3c2cnn3C)s1 [Example 130, (S)-2-hydroxy-N-(1-(5-(2-((1-methyl-6-(trifluoromethyl)-1H-pyrazolo[3,4-d]pyrimidin-4-yl)thio)acetyl)thiophen-2-yl)ethyl)acetamide]
–	–	100 to 500	O=C(CO)NCc1ccc(C(=O)CSc2nccn3cncc23)s1 [Example 181, 2-hydroxy-N-((5-(2-(imidazo[1,5-a]pyrazin-8-ylthio)acetyl)thiophen-2-yl)methyl)acetamide]
–	–	≤ 100	O=C(CSc1nc(C(F)(F)F)nc2ncccc12)c1ccc(CNS(=O)(=O)CC(F)(F)F)s1 [Compound 123, 2,2,2-trifluoro-N-((5-(2-((2-(trifluoromethyl)pyrido[2,3-d]pyrimidin-4-yl)thio)acetyl)thiophen-2-yl)methyl)ethane-1-sulfonamide]
–	–	≤ 100	Cc1nc(SCC(=O)c2ccc(CNC(=O)CO)s2)c2c(F)c(Cl)ccc2n1 [Compound 146, N-((5-(2-((6-chloro-5-fluoro-2-methylquinazolin-4-yl)thio)acetyl)thiophen-2-yl)methyl)-2-hydroxyacetamide]
–	–	100 to 500	COc1cnc2nc(C)nc(SCC(=O)c3ccc(CN4CCOCC4=O)s3)c2c1 [Example 161, 4-((5-(2-((6-methoxy-2-methylpyrido[2,3-d]pyrimidin-4-yl)thio)acetyl)thiophen-2-yl)methyl)morpholin-3-one]
–	–	100 to 500	Cn1ncc2c(SCC(=O)c3ncc(CNC(=O)C(C)(C)C)s3)ncnc21 [Example 27, N-((2-(2-((1-methyl-1H-pyrazolo[3,4-d]pyrimidin-4-yl)thio)acetyl)thiazol-5-yl)methyl)pivalamide]
–	–	1000 to 10000	COc1ccc2oc(SCC(=O)c3ccc(CNC(=O)CO)s3)nc2c1 [Example 167, 2-hydroxy-N-((5-(2-((5-methoxybenzo[d]oxazol-2-yl)thio)acetyl)thiophen-2-yl)methyl)acetamide]
